Our source for the IC50 values is PubChem BioAssay AID488890 (Southern Research Specialized Biocontainment Screening …, 2010).

SMILES strings stand for the structures. Records with an inconclusive call do not appear. The source made the active and inactive calls. The rule behind the calls is not given here.

For the experiment, the system named is Mycobacterium tuberculosis non-replicating, growth inhibition. Briefly: growth inhibition of non-replicating M. tuberculosis (AID 488890).
As for `CC(C)(C)c1ccc(Cn2c(=N)n(CC(O)c3ccco3)c3ccccc32)cc1` (centres undefined), the IC50 was 7.36 µM.
As for `CC1=NN(C(=O)c2csc(C)c2C)C(O)(C(F)(F)F)C1` (centres undefined), the IC50 is 0.4 µM.
For `Cc1cc(C)n2[nH]c(=O)c(N=Nc3cccc(Cl)c3)c2n1`, the IC50 is 4.13 µM.
With `COc1ccc(C2=Nc3ccccc3OC2)cc1`, the IC50 is 5.2 µM.
`COC(=O)COc1ccc(-c2nn(C)c(=O)c3ccccc23)cc1`: the IC50 is 4.25 µM.
In the case of `CCn1nnc(NC(=O)c2ccc([N+](=O)[O-])o2)n1` it was 9.04 µM.
With `Cc1cc(C)n2[nH]c(=O)c(N=Nc3cccc(C(F)(F)F)c3)c2n1`, the IC50 was 4.14 µM.
In the case of `O=C(OCn1nnc2ccccc2c1=O)c1ccc(N2CCOCC2)c([N+](=O)[O-])c1` it was 22.8 µM (inactive); in that of `COc1ccc(C(=O)Oc2cccc3cccnc23)cc1S(=O)(=O)N1CCOCC1`, 1.19 µM; in that of `CCNC(=O)COC(=O)c1ccc(-c2nc3ccccc3s2)s1`, 5.7 µM.
As for `O=C(COC(=O)CCc1c[nH]c2ccccc12)NCc1ccc2c(c1)OCO2`, the IC50 was 9.66 µM.
In the case of `COc1ccc(CCCC(=O)NCc2ccccc2)cc1C`, the IC50 was 5.26 µM.
As for `CC(=O)Nc1nc2ccccc2n1CCOc1ccccc1Cl`, the IC50 is 5.37 µM.
For the compound `CNC(C)C#Cc1ccc2oc3cc(C)c(C)cc3c(=O)c2c1` (centres undefined), the IC50 is 7.55 µM.
For `COC(=O)[C@@H](NC(=O)c1cc(COc2cncc(Cl)c2)on1)c1ccccc1`, the IC50 is 5.58 µM.
Regarding `CC(C)(C)NCC1(CO)SC(N)=NC1=O` (centres undefined), the IC50 was 15.5 µM (inactive).
In the case of `CN1C/C(=C/c2cccnc2)C(=O)/C(=C/c2cccnc2)C1`, the IC50 is 23.5 µM (inactive).
On to `CSC1=N/C(=C\c2ccc(Br)o2)C(=O)S1`, for which the IC50 was 28.7 µM (inactive).
Regarding `O=C1NC(=O)N(Cc2ccco2)C(=O)/C1=C\c1cccn1CCOc1ccc(Cl)cc1`, the IC50 is 7.42 µM.
On to `CCSc1nc(O)c(C2OC(=O)c3c2ccc(OC)c3OC)c(=O)n1-c1ccccc1` (centres undefined), for which the IC50 is 13.3 µM (inactive).
As for `Cc1cccc2cc(C#N)c(NCCCn3ccnc3)nc12`, the IC50 was 23.3 µM (inactive).
`CNC(=O)COC(=O)c1ccc(-c2nc3ccccc3s2)s1`: the IC50 was 4.97 µM.
As to `CCCCNC(=O)N1CCc2ccccc2C1`, the 50% inhibitory concentration (IC50) was 5.03 µM.
In the case of `CCC(=O)c1ccc(OCC(=O)OCC(=O)c2cc(C)n(C3CC3)c2C)cc1` it was 7.97 µM; in that of `CCOC(=O)c1cc(-c2csc(COc3ccccc3Cl)n2)on1`, below 0.1 µM.
For the compound `CCCCCC/C(=N/O)c1ccccn1`, the IC50 is 11.6 µM (inactive).
For the compound `CCn1c(=O)c(C(=O)Nc2ncccc2C)c(O)c2ccccc21`, the IC50 was 9.94 µM.
Next, `O=C(O/N=C/c1ccc2c(c1)OCO2)c1ccc([N+](=O)[O-])cc1`: 11.6 µM (inactive).
On to `O=C(Nc1nnc(-c2ccc(F)cc2)o1)c1cc(Cl)sc1Cl`, for which the IC50 is 7.95 µM.
Take `CCC(=O)Nc1nc2ccccc2n1Cc1ccc(C)cc1`: the IC50 was 20.5 µM (inactive).
For the compound `COc1cccc(/C=N/NC(=O)c2ccoc2C)c1O`, the IC50 is 1.93 µM.
As to `CCOC(=O)C1(CCc2ccccc2)CCN(Cc2ccccn2)CC1`, the IC50 is 13.6 µM (inactive).
Next, `O=C(OCC#CCSc1nnc(-c2ccccc2)o1)c1ccco1`: 1.44 µM.
For the compound `N#Cc1nc(-c2ccc(OCc3ccccc3)cc2)oc1NCCCn1ccnc1`, the IC50 is 15.4 µM (inactive).
In the case of `CCn1c2ccccc2c2cc(CNCc3ccc(OC)cc3OC)ccc21`, the IC50 was 7.41 µM.
In the case of `CCOC(=O)CCSc1n[nH]c(=S)s1`, the IC50 was 11.7 µM (inactive).
Next, `CN(C)CC/C=C1\c2cc(Cl)ccc2Sc2cc(F)c(F)cc21`: 20.2 µM (inactive).
In the case of `CCCn1nnnc1NCc1ccc(C(C)C)cc1` it was 5.89 µM; in that of `C/C(=N\NC(=O)COc1cccc(C)c1)c1ccc2ccccc2c1O`, 0.18 µM.
For `Cc1cc2cc(CNC(=O)C3CCCC3)ccc2n1C`, the IC50 was 17.5 µM (inactive).
With `O=C(NCc1cccs1)c1cc(-c2ccc(O)cc2)on1`, the IC50 is 23.3 µM (inactive).
As to `Cc1ccc(C(=O)CCNc2ccc(F)c(Cl)c2)o1`, the IC50 is 11 µM (inactive).
In the case of `O=C1c2cccc3c([N+](=O)[O-])ccc(c23)C(=O)N1c1ccccn1`, the IC50 was 4.86 µM.
Turning to `COc1ccccc1OCC(=O)N/N=C/C=C/c1ccc([N+](=O)[O-])o1`, the IC50 was 2.78 µM.
Take `Clc1ccc(OCCOCCN2CCc3ccccc3C2)c(Cl)c1`: the IC50 was 11.2 µM (inactive).
On to `Cc1c(C(=O)NNC(=O)c2csc(N3CCOCC3)n2)oc2ccccc12`, for which the IC50 was 7.63 µM.
`O=C(c1nnc(-c2ccc(Cl)cc2)o1)C1CCCC1`: the IC50 was 11.4 µM (inactive).
With `O=C(Cc1cccs1)N/N=C\c1ccc([N+](=O)[O-])s1`, the IC50 is 11.6 µM (inactive).
For `O=C(COc1c(Br)cc(Br)c2cccnc12)N1CCCCC1`, the half-inhibitory concentration (IC50) is 9.93 µM.
Next, `CC(=O)CC1(OC(C)=O)C(=O)N(C)c2ccccc21` (centres undefined): 21.5 µM (inactive).
For the compound `CCCNC(=O)NC(=O)COc1ccc2oc3ccccc3c2c1`, the 50% inhibitory concentration (IC50) is 5.09 µM.
For `O=C(c1ccc([N+](=O)[O-])o1)N1CCc2ccccc2C1`, the IC50 was 5.15 µM.
With `CN(C)c1ccc(/C=C2\N=C(C(C)(C)C)OC2=O)cc1`, the IC50 is 9.11 µM.
Consider `Fc1ccc(COc2ccc(-c3nnco3)cc2)cc1`, for which the IC50 was 10.8 µM (inactive).
With `O=[N+]([O-])c1ccc(CNc2cccc(Cl)c2)s1`, the IC50 was 43.7 µM (inactive).
Consider `CC(C)(C)OC(=O)NNc1c2ccccc2nc2ccccc12`, for which the IC50 is 4.09 µM.
Next, `CCc1ccc(C(=O)COC(=O)c2ccc(Cl)nc2)cc1`: 17.3 µM (inactive); `CCOc1cccc2cc(C(=O)Nc3nccs3)c(=O)oc12`: 2.26 µM.
Turning to `Cc1ccc(C(=O)N/N=C/c2ccc([N+](=O)[O-])s2)cc1`, the IC50 is 2.14 µM.
For `O=C(COC(=O)CCC(=O)c1ccc(F)cc1)Nc1ccccc1`, the IC50 is 11.1 µM (inactive).
In the case of `O=C(Oc1cccnc1)c1ccc(Cl)c(Cl)c1`, the IC50 was 3.86 µM.
On to `O=C(COC(=O)CCC(=O)c1ccc(F)cc1)Nc1ccc(F)cc1F`, for which the IC50 is 24.6 µM (inactive).
On to `N#CC(C#N)=c1ccc2c(c1)NC1(CCCCC1)N=2`, for which the IC50 is 5.71 µM.
In the case of `Cc1ccc(C)c(-c2nnc(NC(=O)COc3ccccc3)o2)c1` it was 1.29 µM; in that of `CN1CCN(c2ccc(NC(=O)c3ccc(-c4ccc(Br)cc4)o3)cc2)CC1`, 4.06 µM; in that of `COc1cc(C2C3=C(CC(C)(C)CC3=O)OC(N)=C2[N+](=O)[O-])ccc1O` (centres undefined), 50 µM (inactive).
Turning to `COc1ccccc1NC(=O)CCN1CCN(c2ccc(Cl)cc2)CC1`, the IC50 is 24.2 µM (inactive).
Next, `O=[N+]([O-])c1cncc([N+](=O)[O-])c1Nc1ccccc1Cl`: 5.36 µM; `O=C(c1cccs1)N1CCN(c2ccc(Cl)cc2)CC1`: 27.2 µM (inactive).
Consider `O=C(CCN1CCOCC1)c1ccc(Br)cc1`, for which the concentration for half-maximal inhibition (IC50) was 3.83 µM.
In the case of `C/C(=C\C(=O)c1ccc(Br)cc1)NNC(=O)c1ccccc1`, the IC50 is 0.38 µM.
`Cc1cc(C)n(-c2nc(NCCCO)c3c4c(sc3n2)CCCC4)n1`: the IC50 was 10.5 µM (inactive).
Next, `CCOC(=O)C1CCN(c2nc3cc(OC)ccc3cc2C#N)CC1`: 11.1 µM (inactive).
For the compound `O=C1Nc2ccc(Br)cc2/C1=C/C(=O)c1ccc2c(c1)OCO2`, the IC50 was 10.6 µM (inactive).
On to `CCOC(=O)CNc1ccc(C(=O)OCC)cc1[N+](=O)[O-]`, for which the IC50 is 11 µM (inactive).
With `NC(N)=Nc1nc(-c2ccccc2)c2ccccc2n1`, the IC50 is 12.8 µM (inactive).
Regarding `O=C(NC(=S)NNC(=O)[C@H]1C[C@@H]1c1ccccc1)c1cccc(F)c1`, the IC50 is 6.69 µM.
Take `CCC(CC)COC(=O)C(C#N)c1nc2ccccc2nc1N1CCN(CC)CC1` (centres undefined): the IC50 is 15.4 µM (inactive).
Next, `Cn1nnc(NC(=O)COc2ccc(C3CCCCC3)cc2)n1`: 1.68 µM.
In the case of `CC(C)OC(=O)CCCCCN1C(=O)CSC1=S` it was 1.94 µM; in that of `O=C(NNC(=S)NC(=O)c1cn(-c2ccccc2)nc1-c1ccccc1)c1ccncc1`, 21.9 µM (inactive); in that of `Cc1occc1-c1nnc(-c2cc([N+](=O)[O-])cc([N+](=O)[O-])c2)o1`, 1.56 µM.
`Cc1ccc(N2C(=O)CC(Sc3nccc(C)n3)C2=O)cc1` (centres undefined): the IC50 is 29.6 µM (inactive).
Consider `Cc1ccc2nc(NC(=O)COC(=O)c3ccc(Br)o3)sc2c1`, for which the IC50 was 35.8 µM (inactive).
As for `CCOC(=O)COn1c(-c2cccc(Cl)c2)nc2ccc([N+](=O)[O-])cc21`, the IC50 was 19.6 µM (inactive).
Take `COc1cc(/C=N/Nc2ccc(Cl)c(C(=O)O)c2)ccc1OC(=O)c1cccs1`: the IC50 was 8.27 µM.
Take `COC(=O)c1ccc(CSc2nnc(-c3ccncc3)o2)o1`: the IC50 was 7.22 µM.
For the compound `Cn1cnc([N+](=O)[O-])c1Sc1ccc(Br)cc1`, the IC50 was 23.6 µM (inactive).
On to `CCOc1ccc(-c2ccc(C=O)o2)c([N+](=O)[O-])c1`, for which the IC50 is 19 µM (inactive).
In the case of `O=S1(=O)C=C(Sc2nc3cc(Cl)ccc3o2)c2ccccc21` it was 0.3 µM; in that of `Cc1cccc2nc(-c3cccnc3)c(NCCC(C)C)n12`, 16.1 µM (inactive); in that of `Cc1[nH]n(S(=O)(=O)Cc2ccccc2)c(=O)c1N=Nc1ccccc1Cl`, 4.72 µM.
Consider `O=C(N/N=C\c1ccc(Cl)s1)C1COc2ccccc2O1` (centres undefined), for which the IC50 was 0.97 µM.
Take `CC(C)(C)c1ccc(OCCC(=O)OCC(=O)NC2CCCCC2)cc1`: the IC50 is 9.3 µM.
`CC1(C)CC(=O)c2cc(C(=O)NNc3ccccc3)c(=O)n(-c3ccccc3)c2C1`: the IC50 is 7.49 µM.
Take `Cc1cc(C)c(OCC(=O)Nc2nnc(-c3ccco3)o2)c(C)c1`: the IC50 is 45.3 µM (inactive).
As for `O=C(N/N=C/c1ccc([N+](=O)[O-])s1)c1cccnc1`, the IC50 was 4.48 µM.
For `O=[N+]([O-])c1cnc(Nc2ccc(Cl)cn2)c([N+](=O)[O-])c1`, the IC50 is 1.89 µM.
With `Cc1ccc(-n2cc(CNCCn3nc(C)cc3C)c(-c3ccc(F)cc3)n2)cc1`, the IC50 was 6.05 µM.

As a reminder, the IC50 is the concentration needed to halve the response being measured.
